Where “and” joins values, the source holds several entries; their conditions need not be identical. Identical values can stand only once. Like-named read-outs stand apart in the source and are kept apart here.
What was measured:
[1] = biological target: anti-DOTA-hapten antibody single chain variable fragment C825; settings: mean ±SD, read-out: Kd (equilibrium dissociation constant) of C825, cited from earlier work
SW1222 tumor = assay: In vivo competition study: maximum tumor uptake of pretargeted DOTA-hapten; parameters: species or system mice
Procedure: In addition to studies with tracer doses of radiolabeled Proteus-DOTA, the upper limit for absolute tumor uptake of radiolabeled Proteus-DOTA was determined using in vivo competition studies. Biodistribution experiments were conducted 24 h following dosing of groups of tumor bearing mice with wide mass range of Proteus-DOTA spanning 2 orders of magnitude (˜170-33800 pmol), showing maximum tumor uptake (“Bmax”) of ˜60 pmol DOTA-hapten/gram of SW1222 tumor. […] Based on a maximum tumor uptake of pretargeted Proteus-DOTA of 62 pmol per gram of SW1222 tumor, ˜180 nCi of ^225Ac could be localized per gram of tumor at SA that are currently achieved with quantitative RCY.

[2] = Dynamic PET imaging and ex vivo biodistribution of [^68Ga]Proteus-DOTA in mice bearing NCI-N87 tumors; parameters: species or system nude mice
Text: Decay-corrected blood and kidney time-activity curves (TAC) are shown for two individual mice. The blood-TAC for each of the animals was separately curve-fitted to a non-linear two phase decay equation. The (i) percent fast, (ii) half life (slow; minutes), (iii) half-life (fast; minutes), and (iv) R^2 values for mouse 1/mouse 2 were: 46/56, 13.2/13.7, 1.4/0.94, and 0.95/0.99, respectively.
PET Imaging and Biodistribution Studies with […]. […] Nude mice bearing HER2-expressing NCI-N87 human gastric carcinoma subcutaneous xenografts (n=4) were injected with 113-140 μCi ([…]) [^68Ga]Proteus-DOTA and imaged with dynamic positron-emission imaging for […] post-injection (p.i.) (n=2), or with static imaging at 1 h p.i. (n=4). All animals were then sacrificed at 2 hours post injection for ex vivo biodistribution analysis. The list-mode data was histogrammed using the following protocol: 12×10 seconds, 6×30 seconds, 5×60 seconds, 4×300 seconds, 30 min, resulting in […]. Regions-of-interest were drawn around heart (for blood as cardiac outflow) and kidney to determine activity concentrations (as % ID/g).

[3] = Blood half-life and biodistribution of [^111In]Proteus-DOTA in tumor-free nude mice; assay type: in vivo, athymic nu/nu female mice
Procedure: The blood half-life of surrogate [^111In] Proteus-DOTA was determined. Dotted line indicates nonlinear two phase decay analysis used to calculate half-life (R^2=0.913). Data is presented as mean ±SD.
(n=5 mice; given i.v.) in tumor-free healthy athymic nu/nu female mice.
Preparation of [^111In]Proteus-DOTA. Using similar radiochemical methods, [^111In]Proteus-DOTA was prepared from [^111In]indium chloride (Nuclear Diagnostic Products, Inc., Rockaway, N.J.; 249 MBq [6.73 mCi]) and 150 μL of 10 mg/mL Proteus-DOTA (1.5 mg; 1.11 μmoles). The [^111In]Proteus-DOTA yield was >98% and the final Specific Activity was 162.8 GBq/g [4.4 Ci/g] or 2.28 E5 GBq/mol [6160 Ci/mol]. This preparation was used for pharmacokinetic studies. Prior to administration into mice, the [^111In]Proteus-DOTA was purified using a Strata™-X cartridge (33 μm Polymeric Reversed Phase C-18 30 mg/l mL #8B-S100-TAK, Phenomenex® Inc., Torrance, Calif. USA) as described for [^68Ga]Proteus-DOTA and the radiochemical purity was verified to be >98% either using an in vitro binding assay with excess BsAb or by analytical reverse-phase HPLC coupled with radiodetection.
A biodistribution assay conducted at 240 min p.i.

[4] = system: GPA33-expressing SW1222 xenografts; settings: anti-GPA33-DOTA-PRIT, 10-50 pmol, 24 hours p.i.; cited from earlier work
[5] = system: GD2-expressing IMR-32 human neuroblastoma xenografts; assay: Anti-GD2-DOTA-PRIT pretargeting biodistribution, ^225Ac- vs ^177Lu-DOTA-Bn; assay type: in vivo, athymic nude mice; settings: pretargeted with hu3F8-C825 + clearing agent, 24 hours post-injection
Procedure: Female athymic nude mice bearing subcutaneous GD2-expressing IMR-32 human neuroblastoma xenografts in the right-hand flank were injected intravenously (i.v.) via the lateral tail-vein with three separate reagents: (1) hu3F8-C825 (0.25 mg, 1.19 nmol) [t=−28 hours (h)], followed by (2) 0.1 mg 500 kD-dextran-DOTA-Bn(Y) (0.2 nmol of CA; 146 DOTA-Bn(Y)/mol of dextran, 29 nmol of DOTA-Bn(Y)) [t=−4 h] and (3) an equimolar amount of either ^177Lu- or ^225Ac-DOTA-Bn (50 μCi and 100 μCi of ^177Lu and ^225Ac, respectively, 8-10 pmol) at [t=0 h]. Mice were sacrificed at 24 h post-injection of radiotracer for biodistribution assay of tumor and select normal tissues. The average tumor masses were as follows (presented as average ±SD): 0.77±0.62 g and 0.49±0.28 g for ^177Lu and ^225Ac cohorts, respectively. Activity concentration data are expressed as the mean % ID/g standard error of the mean (SEM). Errors for the tumor-to-tissue ratios are calculated as the geometric mean of the standard errors of the mean. Student's t-test p-values highlighted in bold are considered significant (p<0.05).

[6] = biphasic, nonlinear two phase decay, R^2=0.913

Compound: Nc1ccc(CC2CN(CC(=O)[O-])CCN(CC(=O)O)CCN(CC(=O)[O-])CCN2CC(=O)[O-])cc1.[Lu+3] (stereo not drawn) [DOTA-Bn complex of Lu, S-2-(4-aminobenzyl)-1,4,7,10-tetraazacyclododecane tetraacetic acid chelate]
- Kd ([1]; listed as benzyl-DOTA (Lu) hapten): 0.01 nM
- Kd [1]: 0.0108 ± 0.0025 nM

Compound: O=C([O-])CN1CCN(CC(=O)[O-])CCN(CC(=O)NCCOCCOCCOCCOCCNC(=S)Nc2ccc(CC3CN(CC(=O)[O-])CCN(CC(=O)[O-])CCN(CC(=O)[O-])CCN3CC(=O)[O-])cc2)CCN(CC(=O)[O-])CC1.[Lu+3] (stereo not drawn) [Proteus-DOTA]
- ^225Ac that could be localized per gram of tumor (SW1222 tumor; based on 62 pmol per gram at currently achieved SA): ~180 nCi
- maximum tumor uptake ("Bmax") (SW1222 tumor; pretargeted, 24 h after dosing, ~170-33800 pmol): ~60 pmol DOTA-hapten/gram of SW1222 tumor and 62 pmol DOTA-hapten/gram of SW1222 tumor

Compound: O=C([O-])CN1CCN(CC(=O)[O-])CCN(CC(=O)NCCOCCOCCOCCOCCNC(=S)Nc2ccc(CC3CN(CC(=O)[O-])CCN(CC(=O)[O-])CCN(CC(=O)[O-])CCN3CC(=O)[O-])cc2)CCN(CC(=O)[O-])CC1.[68Ga+3].[Lu+3] (stereo not drawn) [[^68Ga]Proteus-DOTA]
- Blood activity concentration ([2]; 2 h p.i., n = 4): 2.29 ± 0.31 % ID/g
- Bone activity concentration ([2]; 2 h p.i., n = 4): 0.39 ± 0.07 % ID/g
- Heart activity concentration ([2]; 2 h p.i., n = 4): 0.75 ± 0.10 % ID/g
- Kidneys activity concentration ([2]; 2 h p.i., n = 4): 1.53 ± 0.50 % ID/g
- Large Intestine activity concentration ([2]; 2 h p.i., n = 4): 0.44 ± 0.10 % ID/g
- Liver activity concentration ([2]; 2 h p.i., n = 4): 1.19 ± 0.08 % ID/g
- Lungs activity concentration ([2]; 2 h p.i., n = 4): 1.00 ± 0.13 % ID/g
- Muscle activity concentration ([2]; 2 h p.i., n = 4): 0.17 ± 0.03 % ID/g
- Small Intestine activity concentration ([2]; 2 h p.i., n = 4): 0.59 ± 0.21 % ID/g
- Spleen activity concentration ([2]; 2 h p.i., n = 4): 0.56 ± 0.13 % ID/g
- Stomach activity concentration ([2]; 2 h p.i., n = 4): 0.19 ± 0.05 % ID/g
- Tumor activity concentration ([2]; NCI-N87 tumor, 2 h p.i., n = 4): 0.65 ± 0.08 % ID/g
- blood half life (slow) ([2]; mouse 1, two phase decay fit): 13.2 min
- blood half-life (fast) ([2]; mouse 1, two phase decay fit): 1.4 min
- blood time-activity curve, percent fast ([2]; mouse 1, two phase decay fit): 46
- blood half life (slow) ([2]; mouse 2, two phase decay fit): 13.7 min
- blood half-life (fast) ([2]; mouse 2, two phase decay fit): 0.94 min
- blood time-activity curve, percent fast ([2]; mouse 2, two phase decay fit): 56

Compound: O=C([O-])CN1CCN(CC(=O)[O-])CCN(CC(=O)NCCOCCOCCOCCOCCNC(=S)Nc2ccc(CC3CN(CC(=O)[O-])CCN(CC(=O)[O-])CCN(CC(=O)[O-])CCN3CC(=O)[O-])cc2)CCN(CC(=O)[O-])CC1.[111In+3].[Lu+3] (stereo not drawn) [[^111In]Proteus-DOTA]
- kidney retention (percent injected activity per gram of tissue) ([3]; 240 min p.i., i.v., n=5, mean ±SD): 0.96±0.25 % IA/g
- remaining ^111In-activity in carcass after tissue dissection ([3]; 240 min p.i., n=5, mean ±SD): 0.952±0.162 % ID
- share of alpha phase of blood clearance ([3]; biphasic, nonlinear two phase decay): 87.7%
- blood half-life (alpha) [3, 6]: 7.49 min
- blood half-life (beta) [3, 6]: 24.8 min

Compound: Nc1ccc(CC2CN(CC(=O)[O-])CCN(CC(=O)[O-])CCN(CC(=O)[O-])CCN2CC(=O)[O-])cc1.[86Y+3] (stereo not drawn) [^86Y-DOTA-Bn]
- mean tumor uptake [4]: ~8 % ID/g

Compound: Nc1ccc(CC2CN(CC(=O)[O-])CCN(CC(=O)[O-])CCN(CC(=O)[O-])CCN2CC(=O)[O-])cc1.[177Lu+3] (stereo not drawn) [^177Lu-DOTA-Bn]
- Blood uptake [5]: 0.49±0.09 % ID/g
- kidney uptake [5]: 0.83±0.10 % ID/g
- tumor uptake ([5]; IMR-32 xenograft, n=5): 10.29±2.87 % ID/g
- maximum tumor uptake (SW1222 tumor; pretargeted, same system, i.v. administered dose of 600 pmol): ~60 pmol/g
- mean tumor uptake [4]: ~8 % ID/g

Source: US11565005B2, “Dota-hapten compositions for anti-dota/anti-tumor antigen bispecific antibody pretargeted radioimmunotherapy” (MEMORIAL SLOAN KETTERING CANCER CENTER, priority 2017, dated 2023)
